Assay results from patent US10118930B2, “Piperidinylpyrazolopyrimidinones and their use” (BAYER PHARMA AKTIENGESELLSCHAFT, priority 2015, dated 2018).
Structures can show the parent of a compound that is named as a salt.

tested on: clot lysis (fibrinolysis) in diluted human citrated plasma, tPA-induced; test: Plasma-based clot lysis assay (5%); format: biochemical; details: human citrated platelet-poor plasma 5%, fibrinogen 3 μM, CaCl2 10 mM, tPA 0.2 nM, 37° C., OD at 405 nm
How it was run: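 Clot formation and breakdown triggered by CaCl2 (10 mM final) plus tPA (0.2 nM final) at 37° C, in 5% diluted human plasma supplemented with 3 μM fibrinogen (HEPES/NaCl/Brij buffer, pH 7). IC50 obtained from time courses relative to a blank control.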

SMILES | IC50 [nM]
CCN(C(=O)c1c(C)nn2c(C3CCNCC3)cc(=O)[nH]c12)C1CC1 [Example 400, N-cyclopropyl-N-ethyl-2-methyl-5-oxo-7-(piperidin-4-yl)-4,5-dihydro-pyrazolo[1,5-a] pyrimidine-3-carboxamide hydrochloride] | 32
Cc1nn2c(C3CCNCC3)cc(=O)[nH]c2c1C(=O)N(C)C1CCC1 [Example 401, N-cyclobutyl-N,2-dimethyl-5-oxo-7-(piperidin-4-yl)-4,5-dihydro-pyrazolo[1,5-a] pyrimidine-3-carboxamide hydrochloride] | 34
COCC1CCCN(C(=O)c2c(C)nn3c(C4CCNCC4)cc(=O)[nH]c23)C1 (stereo not drawn) [Example 402, 3-{[3-(methoxymethyl)piperidin-1-yl]carbonyl}-2-methyl-7-(piperidin-4-yl) pyrazolo[1,5-a] pyrimidin-5(4H)-one hydrochloride] | 40
Cc1nn2c(C3CCNCC3)cc(=O)[nH]c2c1C(=O)N1CCC2CCCCC2C1 (stereo not drawn) [Example 405, 2-methyl-3-(octahydro-isoquinolin-2(1H)-ylcarbonyl)-7-(piperidin-4-yl) pyrazolo[1,5-a] pyrimidin-5(4H)-one hydrochloride] | 37
CCCN(CC1CC1)C(=O)c1c(C)nn2c(C3CCNCC3)cc(=O)[nH]c12 [Example 406, N-(cyclopropyl-methyl)-2-methyl-5-oxo-7-(piperidin-4-yl)-N-propyl-4,5-dihydropyrazolo [1,5-a]pyrimidine-3-carboxamide hydrochloride] | 37
Cc1nn2c(C3CCNCC3)cc(=O)[nH]c2c1C(=O)N1CCCC(C(C)C)C1 (stereo not drawn) [Example 408, 3-[(3-isopropyl-piperidin-1-yl)carbonyl]-2-methyl-7-(piperidin-4-yl) pyrazolo[1,5-a] pyrimidin-5(4H)-one hydrochloride] | 34
Cc1nn2c(C3CCNCC3)cc(=O)[nH]c2c1C(=O)N1Cc2ccccc2C1 [Example 410, 3-(1,3-dihydro-2H-isoindol-2-ylcarbonyl)-2-methyl-7-(piperidin-4-yl) pyrazolo[1,5-a] pyrimidin-5(4H)-one hydrochloride] | 45
Cc1nn2c(C3CCNCC3)cc(=O)[nH]c2c1C(=O)N1CCN2CCCC2C1 (stereo not drawn) [Example 411, 3-(hexahydro-pyrrolo[1,2-a]pyrazin-2(1H)-ylcarbonyl)-2-methyl-7-(piperidin-4-yl) pyrazolo[1,5-a] pyrimidin-5(4H)-one hydrochloride] | 540
Cc1nn2c(C3CCNCC3)cc(=O)[nH]c2c1C(=O)N1CCc2ccccc21 [Example 412, 3-(2,3-dihydro-1H-indol-1-ylcarbonyl)-2-methyl-7-(piperidin-4-yl) pyrazolo[1,5-a] pyrimidin-5(4H)-one hydrochloride] | 33
Cc1nn2c(C3CCNCC3)cc(=O)[nH]c2c1C(=O)N1CC2CCCCC2C1 (stereo not drawn) [Example 413, 2-methyl-3-(octahydro-2H-isoindol-2-ylcarbonyl)-7-(piperidin-4-yl) pyrazolo[1,5-a] pyrimidin-5(4H)-one hydrochloride] | 35
Cc1nn2c(C3CCNCC3)cc(=O)[nH]c2c1C(=O)N1CCCC1 [Example 415, 2-methyl-7-(piperidin-4-yl)-3-(pyrrolidin-1-ylcarbonyl) pyrazolo[1,5-a] pyrimidin-5(4H)-one hydrochloride] | 61
Cc1nn2c(C3CCNCC3)cc(=O)[nH]c2c1C(=O)N1CCC(C)CC1 [Example 416, 2-methyl-3-[(4-methyl-piperidin-1-yl)carbonyl]-7-(piperidin-4-yl) pyrazolo[1,5-a] pyrimidin-5(4H)-one hydrochloride] | 31
Cc1nn2c(C3CCNCC3)cc(=O)[nH]c2c1C(=O)NC1CCCC1 [Example 417, N-cyclopentyl-2-methyl-5-oxo-7-(piperidin-4-yl)-4,5-dihydro-pyrazolo[1,5-a] pyrimidine-3-carboxamide hydrochloride] | 24
Cc1nn2c(C3CCNCC3)cc(=O)[nH]c2c1C(=O)NCC(C)C [Example 418, N-isobutyl-2-methyl-5-oxo-7-(piperidin-4-yl)-4,5-dihydro-pyrazolo[1,5-a] pyrimidine-3-carboxamide hydrochloride] | 31
Cc1nn2c(C3CCNCC3)cc(=O)[nH]c2c1C(=O)N1CCCC(C)(C)C1 [Example 420, 3-[(3,3-dimethyl-piperidin-1-yl)carbonyl]-2-methyl-7-(piperidin-4-yl) pyrazolo[1,5-a] pyrimidin-5(4H)-one hydrochloride] | 47
Cc1nn2c(C3CCNCC3)cc(=O)[nH]c2c1C(=O)N1CC(C)CC(C)C1 (stereo not drawn) [Example 421, 3-[(3,5-dimethyl-piperidin-1-yl)carbonyl]-2-methyl-7-(piperidin-4-yl) pyrazolo[1,5-a] pyrimidin-5(4H)-one hydrochloride] | 30
Cc1nn2c(C3CCNCC3)cc(=O)[nH]c2c1C(=O)NC1CCC1 [Example 422, N-cyclobutyl-2-methyl-5-oxo-7-(piperidin-4-yl)-4,5-dihydro-pyrazolo[1,5-a] pyrimidine-3-carboxamide hydrochloride] | 23

SMILES | IC50 [nM]
CCN(Cc1ccccc1)C(=O)c1c(C)nn2c(C3CCNCC3)cc(=O)[nH]c12 [Example 423, N-benzyl-N-ethyl-2-methyl-5-oxo-7-(piperidin-4-yl)-4,5-dihydro-pyrazolo[1,5-a] pyrimidine-3-carboxamide hydrochloride] | 33
CCN(C)C(=O)c1c(C)nn2c(C3CCNCC3)cc(=O)[nH]c12 [Example 424, N-ethyl-N,2-dimethyl-5-oxo-7-(piperidin-4-yl)-4,5-dihydro-pyrazolo[1,5-a] pyrimidine-3-carboxamide hydrochloride] | 78
Cc1nn2c(C3CCNCC3)cc(=O)[nH]c2c1C(=O)N(C)CC1CC1 [Example 425, N-(cyclopropyl-methyl)-N,2-dimethyl-5-oxo-7-(piperidin-4-yl)-4,5-dihydro-pyrazolo[1,5-a] pyrimidine-3-carboxamide hydrochloride] | 37
Cc1nn2c(C3CCNCC3)cc(=O)[nH]c2c1C(=O)N1CCOC(C)(C)C1 [Example 426, 3-[(2,2-dimethyl-morpholin-4-yl)carbonyl]-2-methyl-7-(piperidin-4-yl) pyrazolo[1,5-a] pyrimidin-5(4H)-one hydrochloride] | 56
Cc1nn2c(C3CCNCC3)cc(=O)[nH]c2c1C(=O)N(C)Cc1ccccn1 [Example 428, N,2-dimethyl-5-oxo-7-(piperidin-4-yl)-N-(pyridin-2-ylmethyl)-4,5-dihydro-pyrazolo[1,5-a] pyrimidine-3-carboxamide hydrochloride] | 29
Cc1nn2c(C3CCNCC3)cc(=O)[nH]c2c1C(=O)N1CCC(F)(F)C1 [Example 429, 3-[(3,3-difluoro-pyrrolidin-1-yl)carbonyl]-2-methyl-7-(piperidin-4-yl) pyrazolo[1,5-a] pyrimidin-5(4H)-one hydrochloride] | 30
Cc1nn2c(C3CCNCC3)cc(=O)[nH]c2c1C(=O)N1CCNC(=O)CC1 [Example 430, 2-methyl-3-[(5-oxo-1,4-diazepan-1-yl)carbonyl]-7-(piperidin-4-yl) pyrazolo[1,5-a] pyrimidin-5(4H)-one hydrochloride] | 120
Cc1ccccc1N(C)C(=O)c1c(C)nn2c(C3CCNCC3)cc(=O)[nH]c12 [Example 431, N,2-dimethyl-N-(2-methyl-phenyl)-5-oxo-7-(piperidin-4-yl)-4,5-dihydro-pyrazolo[1,5-a] pyrimidine-3-carboxamide hydrochloride] | 28
CCCN(CC)C(=O)c1c(C)nn2c(C3CCNCC3)cc(=O)[nH]c12 [Example 432, N-ethyl-2-methyl-5-oxo-7-(piperidin-4-yl)-N-propyl-4,5-dihydro-pyrazolo[1,5-a] pyrimidine-3-carboxamide hydrochloride] | 120
Cc1nn2c(C3CCNCC3)cc(=O)[nH]c2c1C(=O)N1CCC(C)(C)CC1 [Example 434, 3-[(4,4-dimethyl-piperidin-1-yl)carbonyl]-2-methyl-7-(piperidin-4-yl) pyrazolo[1,5-a] pyrimidin-5(4H)-one hydrochloride] | 32
Cc1nn2c(C3CCNCC3)cc(=O)[nH]c2c1C(=O)N(C)Cc1ccccc1 [Example 436, N-benzyl-N,2-dimethyl-5-oxo-7-(piperidin-4-yl)-4,5-dihydro-pyrazolo[1,5-a] pyrimidine-3-carboxamide hydrochloride] | 39
Cc1nn2c(C3CCNCC3)cc(=O)[nH]c2c1-c1nc(-c2ccccc2F)no1 [Example 438, 3-[3-(2-fluorophenyl)-1,2,4-oxadiazol-5-yl]-2-methyl-7-(piperidin-4-yl)pyrazolo[1,5-a]pyrimidin-5(4H)-one hydrochloride] | 12
Cc1nn2c(C3CCNCC3)cc(=O)[nH]c2c1-c1nc(Cc2ccccc2Cl)no1 [Example 439, 3-[3-(2-chlorobenzyl)-1,2,4-oxadiazol-5-yl]-2-methyl-7-(piperidin-4-yl)pyrazolo[1,5-a]pyrimidin-5(4H)-one hydrochloride] | 26
Cc1ccccc1-c1noc(-c2c(C)nn3c(C4CCNCC4)cc(=O)[nH]c23)n1 [Example 440, 2-methyl-3-[3-(2-methylphenyl)-1,2,4-oxadiazol-5-yl]-7-(piperidin-4-yl)pyrazolo[1,5-a]pyrimidin-5(4H)-one hydrochloride] | 23
Cc1nn2c(C3CCNCC3)cc(=O)[nH]c2c1-c1nc(-c2cccc(Cl)c2)no1 [Example 441, 3-[3-(3-chlorophenyl)-1,2,4-oxadiazol-5-yl]-2-methyl-7-(piperidin-4-yl)pyrazolo[1,5-a]pyrimidin-5(4H)-one hydrochloride] | 29
Cc1nn2c(C3CCNCC3)cc(=O)[nH]c2c1-c1nc(-c2ccc(C(F)(F)F)cc2)no1 [Example 442, 2-methyl-7-(piperidin-4-yl)-3-{3-[4-(trifluoromethyl)phenyl]-1,2,4-oxadiazol-5-yl}pyrazolo[1,5-a]pyrimidin-5(4H)-one hydrochloride] | 27
